Experimental data taken from ChEMBL document CHEMBL1138868, “Interpreting steep dose-response curves in early inhibitor discovery” (J Med Chem, 2006).

What was measured:
Beta-lactamase [1] = target: T1, Beta-lactamase (Escherichia coli K-12, UniProt P00811); experiment: Inhibition of 10 nM AmpC beta lactamase
Beta-lactamase [2] = target: T1, Beta-lactamase; experiment: Inhibition of 30 nM AmpC beta lactamase
Beta-lactamase [3] = target: T1, Beta-lactamase; experiment: Inhibition of 1 nM AmpC beta lactamase
Beta-lactamase [4] = target: T1, Beta-lactamase; experiment: Inhibition of 20 nM AmpC beta lactamase

T1 sequence (P00811 whole entry): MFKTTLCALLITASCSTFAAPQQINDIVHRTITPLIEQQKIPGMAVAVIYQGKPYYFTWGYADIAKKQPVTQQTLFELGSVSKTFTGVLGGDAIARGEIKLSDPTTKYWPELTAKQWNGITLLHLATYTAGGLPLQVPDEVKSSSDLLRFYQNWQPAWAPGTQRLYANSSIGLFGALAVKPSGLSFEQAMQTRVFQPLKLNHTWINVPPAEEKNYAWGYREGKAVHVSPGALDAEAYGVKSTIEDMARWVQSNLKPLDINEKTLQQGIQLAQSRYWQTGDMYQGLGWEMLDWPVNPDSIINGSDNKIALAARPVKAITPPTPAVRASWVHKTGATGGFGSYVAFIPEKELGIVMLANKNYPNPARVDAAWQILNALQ

Structure (SMILES)	IC50 (Beta-lactamase [1]) [µM]	IC50 (Beta-lactamase [2]) [µM]	IC50 (Beta-lactamase [3]) [µM]	IC50 (Beta-lactamase [4]) [µM]
CC(=O)c1c(O)c(C)c(O)c(Cc2c(O)c3c(c(C(=O)/C=C/c4ccccc4)c2O)OC(C)(C)C=C3)c1O [ROTTLERIN]	21	76	1.8	
O=C1OC(c2ccc(O)cc2)(c2ccc(O)cc2)c2c(I)c(I)c(I)c(I)c21 [TETRAIODOPHENOLPHTHALEINE]	20		3.8	19
